Measured values published in BindingDB's records for doi:10.1021/jm9508696 (Sandoz Research Institute, 1996).

Target: T1, Dimer of Gag-Pol polyprotein [489-587] (Human immunodeficiency virus 1, UniProt P12497)
T1 construct: 489-587
Test: Protease Inhibition Assay
Procedure: Enzymatic activity was measured by following cleavage of the substrate H-Lys-Ala-Arg-Val-Leu-pNph-Glu-Ala-Nle-NH2. Products of the cleavage reaction were quantified by HPLC detection

COc1ccc(CN[C@@H](C(=O)N[C@H]2c3ccccc3C[C@H]2O)[C@H](O)[C@H](Cc2ccccc2)NC(=O)C(CC(=O)O)NC(=O)OCc2ccccc2)cc1 (stereo partly drawn) [3-{[(benzyloxy)carbonyl]amino}-3-{[(2S,3R,4R)-3-hydroxy-4-{[(1S,2R)-2-hydroxy-2,3-dihydro-1H-inden-1-yl]carbamoyl}-4-{[(4-methoxyphenyl)methyl]amino}-1-phenylbutan-2-yl]carbamoyl}propanoic acid]
Ki (pH 6.25, 37 °C): 22 nM

COc1ccc(CN[C@@H](C(=O)N[C@H]2c3ccccc3C[C@H]2O)[C@H](O)[C@H](Cc2ccccc2)NC(=O)[C@@H](NC(=O)CCc2ccccc2O)C(C)(C)C)cc1 [(2R,3R,4S)-3-hydroxy-N-[(1S,2R)-2-hydroxy-2,3-dihydro-1H-inden-1-yl]-4-[(2S)-2-[3-(2-hydroxyphenyl)propanamido]-3,3-dimethylbutanamido]-2-{[(4-methoxyphenyl)methyl]amino}-5-phenylpentanamide]
Ki: 13 nM

COc1ccc(CN[C@@H](C(=O)N[C@H]2c3ccccc3C[C@H]2O)[C@H](O)[C@H](Cc2ccccc2)NC(=O)[C@@H](NC(=O)CCc2ccc(OC)c(O)c2)C(C)(C)C)cc1 [(2R,3R,4S)-3-hydroxy-N-[(1S,2R)-2-hydroxy-2,3-dihydro-1H-inden-1-yl]-4-[(2S)-2-[3-(3-hydroxy-4-methoxyphenyl)propanamido]-3,3-dimethylbutanamido]-2-{[(4-methoxyphenyl)methyl]amino}-5-phenylpentanamide]
Ki: 7.7 nM

COc1ccc(CN[C@@H](C(=O)N[C@H]2c3ccccc3C[C@H]2O)[C@H](O)[C@H](Cc2ccccc2)NC(=O)[C@@H](NC(=O)/C=C/c2ccc(OC)cc2O)C(C)(C)C)cc1 [(2R,3R,4S)-3-hydroxy-N-[(1S,2R)-2-hydroxy-2,3-dihydro-1H-inden-1-yl]-4-[(2S)-2-[(2E)-3-(2-hydroxy-4-methoxyphenyl)prop-2-enamido]-3,3-dimethylbutanamido]-2-{[(4-methoxyphenyl)methyl]amino}-5-phenylpentanamide]
Ki: 18 nM

COc1ccc(CN[C@@H](C(=O)N[C@H]2c3ccccc3C[C@H]2O)[C@H](O)[C@H](Cc2ccccc2)NC(=O)[C@@H](NC(=O)/C=C/c2ccc(OC)c(O)c2)C(C)(C)C)cc1 [(2R,3R,4S)-3-hydroxy-N-[(1S,2R)-2-hydroxy-2,3-dihydro-1H-inden-1-yl]-4-[(2S)-2-[(2E)-3-(3-hydroxy-4-methoxyphenyl)prop-2-enamido]-3,3-dimethylbutanamido]-2-{[(4-methoxyphenyl)methyl]amino}-5-phenylpentanamide]
Ki: 5.8 nM

COc1ccc(CN[C@@H](C(=O)N[C@H]2c3ccccc3C[C@H]2O)[C@H](O)[C@H](Cc2ccccc2)NC(=O)[C@@H](NC(=O)CSc2nncn2C)C(C)(C)C)cc1 [(2R,3R,4S)-4-[(2S)-3,3-dimethyl-2-{2-[(4-methyl-4H-1,2,4-triazol-3-yl)sulfanyl]acetamido}butanamido]-3-hydroxy-N-[(1S,2R)-2-hydroxy-2,3-dihydro-1H-inden-1-yl]-2-{[(4-methoxyphenyl)methyl]amino}-5-phenylpentanamide]
Ki: 5.8 nM

COc1ccc(CN[C@@H](C(=O)N[C@H]2c3ccccc3C[C@H]2O)[C@H](O)[C@H](Cc2ccccc2)NC(=O)[C@@H](NC(=O)CSc2nnc(C)s2)C(C)(C)C)cc1 [(2R,3R,4S)-4-[(2S)-3,3-dimethyl-2-{2-[(5-methyl-1,3,4-thiadiazol-2-yl)sulfanyl]acetamido}butanamido]-3-hydroxy-N-[(1S,2R)-2-hydroxy-2,3-dihydro-1H-inden-1-yl]-2-{[(4-methoxyphenyl)methyl]amino}-5-phenylpentanamide]
Ki: 8 nM

COc1ccc(CN[C@@H](C(=O)N[C@H]2c3ccccc3C[C@H]2O)[C@H](O)[C@H](Cc2ccccc2)NC(=O)OC(C)(C)C)cc1 [(2R,3S,4S,1 S,2 R)-4-[[(1,1-Dimethylethoxy0carbonyl]amino]-3-hydroxy-2-[(4-methoxybenzyl)amino]-5-phenylpentan(2-hydroxy-1 indanyl)amide]
Ki (pH 6.25, 37 °C): 65 nM

CCC(C)C(NC(=O)OCc1ccccc1)C(=O)N[C@@H](Cc1ccccc1)[C@@H](O)[C@@H](NCc1ccc(OC)cc1)C(=O)N[C@H]1c2ccccc2C[C@H]1O (stereo partly drawn) [benzyl N-(1-{[(2S,3R,4R)-3-hydroxy-4-{[(1S,2R)-2-hydroxy-2,3-dihydro-1H-inden-1-yl]carbamoyl}-4-{[(4-methoxyphenyl)methyl]amino}-1-phenylbutan-2-yl]carbamoyl}-2-methylbutyl)carbamate]
Ki (pH 6.25, 37 °C): 8.2 nM

COc1ccc(CN[C@@H](C(=O)N[C@H]2c3ccccc3C[C@H]2O)[C@H](O)[C@H](Cc2ccccc2)NC(=O)C(NC(=O)OCc2ccccc2)C(C)C)cc1 (stereo partly drawn) [benzyl N-(1-{[(2S,3R,4R)-3-hydroxy-4-{[(1S,2R)-2-hydroxy-2,3-dihydro-1H-inden-1-yl]carbamoyl}-4-{[(4-methoxyphenyl)methyl]amino}-1-phenylbutan-2-yl]carbamoyl}-2-methylpropyl)carbamate]
Ki (pH 6.25, 37 °C): 8.1 nM

COc1ccc(CN[C@@H](C(=O)N[C@H]2c3ccccc3C[C@H]2O)[C@H](O)[C@H](Cc2ccccc2)NC(=O)C(CC(N)=O)NC(=O)OCc2ccccc2)cc1 (stereo partly drawn) [benzyl N-(2-carbamoyl-1-{[(2S,3R,4R)-3-hydroxy-4-{[(1S,2R)-2-hydroxy-2,3-dihydro-1H-inden-1-yl]carbamoyl}-4-{[(4-methoxyphenyl)methyl]amino}-1-phenylbutan-2-yl]carbamoyl}ethyl)carbamate]
Ki (pH 6.25, 37 °C): 15 nM

CC(C)(C)[C@H](NC(=O)OCc1ccccc1)C(=O)N[C@@H](Cc1ccccc1)[C@@H](O)[C@@H](NCc1ccc(CNC(=O)CCc2nc3ccccc3[nH]2)cc1)C(=O)N[C@H]1c2ccccc2C[C@H]1O [benzyl N-[(1S)-1-{[(2S,3R,4R)-4-{[(4-{[3-(1H-1,3-benzodiazol-2-yl)propanamido]methyl}phenyl)methyl]amino}-3-hydroxy-4-{[(1S,2R)-2-hydroxy-2,3-dihydro-1H-inden-1-yl]carbamoyl}-1-phenylbutan-2-yl]carbamoyl}-2,2-dimethylpropyl]carbamate]
Ki: 4.1 nM

COc1ccc(CN[C@@H](C(=O)N[C@H]2c3ccccc3C[C@H]2O)[C@H](O)[C@H](Cc2ccccc2)NC(=O)[C@@H](NC(=O)OC(C)(C)C)C(C)(C)C)cc1 [tert-butyl N-[(1S)-1-{[(2S,3R,4R)-3-hydroxy-4-{[(1S,2R)-2-hydroxy-2,3-dihydro-1H-inden-1-yl]carbamoyl}-4-{[(4-methoxyphenyl)methyl]amino}-1-phenylbutan-2-yl]carbamoyl}-2,2-dimethylpropyl]carbamate]
Ki: 210 nM

CC(C)(C)OC(=O)N[C@@H](Cc1ccccc1)[C@@H](O)[C@@H](NCc1ccc(CNC(=O)Nc2ccccc2)cc1)C(=O)N[C@H]1c2ccccc2C[C@H]1O [tert-butyl N-[(2S,3R,4R)-3-hydroxy-4-{[(1S,2R)-2-hydroxy-2,3-dihydro-1H-inden-1-yl]carbamoyl}-1-phenyl-4-{[(4-{[(phenylcarbamoyl)amino]methyl}phenyl)methyl]amino}butan-2-yl]carbamate]
Ki (pH 6.25, 37 °C): 33 nM

CC(C)(C)OC(=O)N[C@@H](Cc1ccccc1)[C@@H](O)[C@@H](NCc1ccc(OCCO)cc1)C(=O)N[C@H]1c2ccccc2C[C@H]1O [tert-butyl N-[(2S,3R,4R)-3-hydroxy-4-{[(1S,2R)-2-hydroxy-2,3-dihydro-1H-inden-1-yl]carbamoyl}-4-({[4-(2-hydroxyethoxy)phenyl]methyl}amino)-1-phenylbutan-2-yl]carbamate]
Ki (pH 6.25, 37 °C): 80 nM

CC(C)(C)OC(=O)N[C@@H](Cc1ccccc1)[C@@H](O)[C@@H](NCc1ccc(OCCN2CCOCC2)cc1)C(=O)N[C@H]1c2ccccc2C[C@H]1O [tert-butyl N-[(2S,3R,4R)-3-hydroxy-4-{[(1S,2R)-2-hydroxy-2,3-dihydro-1H-inden-1-yl]carbamoyl}-4-[({4-[2-(morpholin-4-yl)ethoxy]phenyl}methyl)amino]-1-phenylbutan-2-yl]carbamate]
Ki (pH 6.25, 37 °C): 130 nM

CC(C)(C)OC(=O)N[C@@H](Cc1ccccc1)[C@@H](O)[C@@H](NCc1ccccc1)C(=O)NCc1ccccc1 [tert-butyl N-[(2S,3R,4R)-4-(benzylamino)-4-(benzylcarbamoyl)-3-hydroxy-1-phenylbutan-2-yl]carbamate]
Ki (pH 6.25, 37 °C): 2500 nM

CC(C)(C)OC(=O)N[C@@H](Cc1ccccc1)[C@@H](O)[C@@H](NCc1ccc(OCCO)cc1)C(=O)NCc1ccccc1 [tert-butyl N-[(2S,3R,4R)-4-(benzylcarbamoyl)-3-hydroxy-4-({[4-(2-hydroxyethoxy)phenyl]methyl}amino)-1-phenylbutan-2-yl]carbamate]
Ki (pH 6.25, 37 °C): 1200 nM

COc1ccc(CN[C@@H](C(=O)N[C@H](C(=O)NCc2nc3ccccc3[nH]2)C(C)C)[C@H](O)[C@H](Cc2ccccc2)NC(=O)OC(C)(C)C)cc1 [tert-butyl N-[(2S,3R,4R)-4-{[(1S)-1-[(1H-1,3-benzodiazol-2-ylmethyl)carbamoyl]-2-methylpropyl]carbamoyl}-3-hydroxy-4-{[(4-methoxyphenyl)methyl]amino}-1-phenylbutan-2-yl]carbamate]
Ki (pH 6.25, 37 °C): 7.7 nM

CCOc1ccc(CN[C@@H](C(=O)N[C@H]2c3ccccc3C[C@H]2O)[C@H](O)[C@H](Cc2ccccc2)NC(=O)OC(C)(C)C)cc1 [tert-butyl N-[(2S,3R,4R)-4-{[(4-ethoxyphenyl)methyl]amino}-3-hydroxy-4-{[(1S,2R)-2-hydroxy-2,3-dihydro-1H-inden-1-yl]carbamoyl}-1-phenylbutan-2-yl]carbamate]
Ki (pH 6.25, 37 °C): 92 nM

CC(C)(C)OC(=O)N[C@@H](Cc1ccccc1)[C@@H](O)[C@@H](NCc1ccc(CNC(=O)CCc2nc3ccccc3[nH]2)cc1)C(=O)NCc1ccccc1 [tert-butyl N-[(2S,3R,4R)-4-{[(4-{[3-(1H-1,3-benzodiazol-2-yl)propanamido]methyl}phenyl)methyl]amino}-4-(benzylcarbamoyl)-3-hydroxy-1-phenylbutan-2-yl]carbamate]
Ki (pH 6.25, 37 °C): 680 nM
